Laboratory results published in patent US8497352B2, “Use of Wnt5-α peptide derivates for the treatment of melanoma and gastric cancer” (Wntresearch AB, priority 2008, dated 2013).
Entries after “also recorded” stand apart in the source; their conditions may differ. Bridges are numbered along the chain shown (N, C = ends). Where no end group is shown, it is not given here. The star is where a group is joined. Boc = CC(C)(C)OC(=O)*

Legend:
Type in all cases: cell-based, human
HTB63 melanoma cells [1] = test: BD Matrigel invasion chamber assay, HTB63 cells; conditions: 100 μM Box5, 24 hours
Protocol: (§1) Cell invasion was analyzed using the BD Matrigel™ invasion chamber assay (BD Biosciences, Bedford, Mass.). Prior to the initiation of each experiment, the cells were detached with Versene and re-suspended as single cells in serum-free RPMI medium. As indicated, cells were pre-incubated with the Box5 peptide (100 μM) or control solvent for 40 min with continuous agitation. An aliquot of the cell suspension containing 25,000 cells and 100 μM Box5 or control solvent was then added to the upper transwell chamber, and the lower chamber was filled with serum-containing (10%) medium. The invasion chambers were shaken horizontally for 5 min to ensure even distribution of the cells in suspension and subsequently across the membrane surface. The cells were allowed to invade for the periods of time indicated at 37° C. in a humidified atmosphere of 5% CO2. The medium was discarded and cells were fixed in 4% paraformaldehyde for 10 min. The cells were stained with 0.5% crystal violet in 20% methanol for 10 min and the non-invading cells on the inner side of the membrane were removed with a cotton-tipped applicator. The membrane was cut out of the chamber using a scalpel blade and the stained cells on the lower chamber side of the membrane were counted.

A2058 melanoma cells [2] = test: Wound-healing assay (migration), A2058 cells
Protocol: (§2) Cells were plated in 12 well plates and allowed to grow into a confluent layer in complete RPMI (for A2058 cells) or complete McCoy's 5A medium (for HTB63 cells). As indicated, cells were pre-incubated with the Box5 peptide (100 μM) or control solvent for 40 min with continuous agitation. A wound was then inflicted by making a scratch through the confluent layer of cells with a pipette tip. During the migration period of the assay, cells were incubated either in serum-free medium or in the case of HTB63 cells in their own serum-free-conditioned medium collected from cells cultured for 48 h and used within 2 days after collection. The exact conditions of each experiment are described above. To avoid loss of activity, cell medium was changed after 24 hours. A picture for each scratch was taken in the same area of cells at 0, 16, 24, 40 and 48 hours, and wound healing was measured as percentage of wound area closed. For each experimental condition wound healing was analysed in triplicate. All data were based on 3 to 8 separate experiments as indicated.

PKC = test: MARCKS phosphorylation (PKC activity) in A2058 cells, Western blot; conditions: 100 μM Box5 overnight, rWnt-5a 0.2 μg/ml
Protocol: The cells were either directly lysed in 1× Laemmli buffer containing DTT and boiled for 10 min, or lysed in buffer containing 50 mM Tris-HCl (pH 7.5), 1% Triton X-100, 100 mM NaCl, 10 mM MgCl2, 20% glycerol, 1 mM Na3VO4, and protease inhibitors (20 μg/ml aprotinin, 1 μg/ml leupeptin, 2.5 mM benzamidine, and 2 mM pefabloc). Cell treated with lysis buffer were centrifuged at 15,000 rpm for 5 min at 4° C. The protein content in each sample was determined and adjusted to ensure equal loading of protein in each lane. Thereafter, 50 mM DTT and 5× concentrated Laemmli buffer was added and the samples boiled for 5 min. The samples were separated by SDS polyacrylamide gel electrophoresis and subsequently transferred to PVDF membranes. For immunoblotting the membranes were blocked in PBS supplemented with 0.2% Tween 20 and 1% non-fat milk for Wnt-5a or 3% non-fat milk as for all other antibodies for 1 h. […] Finally, the Ab-antigen complexes were detected using enhanced chemiluminescence. […]
In the present study the level of PKC auto-phosphorylation (Weeraratna et al., 2002, Dissanayake et al., 2007) was not estimated since its relation to PKC kinase activity is unclear. Instead the effects of Wnt-5a and Box5 on the phosphorylation of the endogenous PKC substrate MARCKS were analyzed as a direct means of estimating the activity level of PKC in the melanoma cells. […]

[3] = tested on: Wnt-5a-induced Ca^2+ signaling; test: Determination of cytosolic free calcium levels (fura-2) in A2058 cells; conditions: for Cytosolic Ca^2+ response in A2058 cells, control G-protein coupled receptor ligands: endothelin-1 10 nM, charbacol 5 μM
Protocol: Cells grown on a glass cover slip were incubated with 4 μM fura-2/AM in culture medium for 30 minutes at 37° C. (Dejmek et al., 2006). After fura-2 loading of the cells, the cover slips were washed and mounted in a specially designed chamber to which was added a calcium-containing medium (136 mM NaCl, 4.7 mM KCl, 1.2 mM MgSO4, 1.1 mM CaCl2, 1.2 KH2PO4, 5 mM NaHCO3, 5.5 mM glucose and 20 mM Hepes, pH 7.4). The chamber was then placed in a system consisting of a NIKON Diaphot microscope connected to a Photon Technology International (PTI) imaging system. The cells were first allowed to rest for 10 minutes before any stimulation was performed. Fura-2 fluorescence was then recorded continuously from the cells before and after the stimulations with either Wnt-5a, endothelin-1 or charbacol (as indicated in the legend to FIG. 8) using an excitation wavelength rapidly alternating between 340 and 380 nm, while the emission wavelength was set at 510 nm. The fluorescence intensity ratios (340/380 nm) were subsequently calculated and analyzed using the PTI Image Master Software. Statistical analysis—The Student's t-test for unpaired samples was used to analyze differences in the experiments, where *=p<0.05, **=p<0.01, and ***=p<0.001

HTB63 melanoma cells [4] = test: Wound-healing assay (migration), HTB63 cells; conditions: 100 μM peptide in conditioned medium containing secreted Wnt-5a
Protocol: as §2

A2058 melanoma cells [5] = test: BD Matrigel invasion chamber assay, A2058 cells
Protocol: as §1

A2058 melanoma cells [6] = test: Cell adhesion assay, A2058 cells; conditions: TGF-β1, 60 min adhesion
Protocol: Cells pre-treated and stimulated as described below were detached with Versene, re-suspended in serum-free RPMI medium and samples containing 30,000 cells from each treatment group were added to each well of a 96-well plate The cells were allowed to adhere for 60 min at 37° C. in a humidified atmosphere of 5% carbon dioxide after which the non-adherent cells were washed away with PBS. The adherent cells were fixed in 1% glutaraldehyde for 10 min at room temperature and then stained with 0.5% crystal violet in 20% methanol for 10 min. Finally the stain from each group of cells was dissolved in 50% acetic acid. The amount of dissolved stain from each well was thereafter measured in a Fluostar plate reader (BMG Lab Technologies GmbH, Offenberg, Germany) at 544 nm. The individual samples from each separate experiment were analysed in quadruplicate and the accumulated data were based on 5 separate experiments. The results are illustrated in FIG. 4. • A) A2058 melanoma cells were stimulated with the indicated concentrations of Wnt-5a, detached with Versene and resuspended as single cells in serum-free medium in the presence or absence of recombinant Wnt-5a at the indicated concentrations. Cells were then allowed to adhere in a 96-well plate. After a period of 60 min the non-adherent cells were washed away while the adherent cells were stained and their number determined. This number is presented as a percentage of the control (no Wnt-5a) stimulation (FIG. 4A) • B) A2058 melanoma cells were cultured to confluence in a 12-well plate after which a scratch was inflicted in each well, the medium was changed to fresh serum-free medium lacking (closed circles) or containing 0.2 μg/ml Wnt-5a (open squares). (FIG. 4B) • C) A2058 melanoma cells were cultured to confluence in a 12-well plate after which a scratch was inflicted to each well, the medium was changed to fresh serum-free medium in the absence of any additive (closed circle), the presence of 0.2 μg/ml Wnt-5a alone (open squares) or the presence of 0.2 μg/ml Wnt-5a with 100 μM Box5 (open triangle). (FIG. 4C) • D) HTB63 melanoma cells were cultured to confluence in a 12-well dish after which a scratch was inflicted to each well, the medium was changed to fresh serum-free medium (closed circle), conditioned medium (open squares) or conditioned medium supplemented with 100 μM Box5 (open triangle). To record changes in migration in panels B-D, a picture was taken from each scratch/well from the same area of cells after 0, 16, 24, 40 or 48 hours, and the wound-healing was expressed as percentage of wound area closed. […] The cells were then allowed to invade for 24 hours after which the attached cells on the lower side of the membrane were counted. […]

[7] = tested on: Wnt-5a protein expression; test: Wnt-5a protein expression in A2058 cells, Western blot
Protocol: The cells were either directly lysed in 1× Laemmli buffer containing DTT and boiled for 10 min, or lysed in buffer containing 50 mM Tris-HCl (pH 7.5), 1% Triton X-100, 100 mM NaCl, 10 mM MgCl2, 20% glycerol, 1 mM Na3VO4, and protease inhibitors (20 μg/ml aprotinin, 1 μg/ml leupeptin, 2.5 mM benzamidine, and 2 mM pefabloc). Cell treated with lysis buffer were centrifuged at 15,000 rpm for 5 min at 4° C. The protein content in each sample was determined and adjusted to ensure equal loading of protein in each lane. Thereafter, 50 mM DTT and 5× concentrated Laemmli buffer was added and the samples boiled for 5 min. The samples were separated by SDS polyacrylamide gel electrophoresis and subsequently transferred to PVDF membranes. For immunoblotting the membranes were blocked in PBS supplemented with 0.2% Tween 20 and 1% non-fat milk for Wnt-5a or 3% non-fat milk as for all other antibodies for 1 h. Thereafter the membranes were incubated for 1 h at room temperature or overnight at 4° C. with the indicated primary Ab (1:25,000 for β-actin; 1:1,000 for Wnt-5a and 1:1,000 for TGF-β1) in 2% non-fat milk or 1.5% BSA. After extensive washing in PBS with 0.2% Tween, the membranes were incubated for 1 h with a horseradish peroxidase-conjugated secondary Ab in 2% non-fat milk or 1.5% BSA and again extensively washed. Finally, the Ab-antigen complexes were detected using enhanced chemiluminescence. […]

## t-boc-Met-Asp-Gly-Cys-Glu-Leu (Boc-MDGCEL) [Box5, novel Wnt-5a-derived N-butyloxycarbonyl hexapeptide (Met-Asp-Gly-Cys-Glu-Leu), Wnt-5a antagonist]
HTB63 melanoma cells [1]
  Effect on invasion of HTB63 cells (endogenous Wnt-5a): inhibit
A2058 melanoma cells [2]; 100 μM Box5, 0.2 μg/ml Wnt-5a, wound area closed over 0-48 hours
  Effect on Wnt-5a-induced migration of A2058 cells: abolished
A2058 melanoma cells [2]; 100 μM Box5, no Wnt-5a, wound area closed over 0-48 hours
  Effect on intrinsic (basal) migration of A2058 cells: no effect
A2058 melanoma cells [2]; 100 μM Box5 pre-incubated 40 minutes, 5 ng/ml TGF-β1
  Effect on TGF-β1-induced migration of A2058 cells: abolished; also recorded: blocked
PKC
  Effect on Wnt-5a-induced MARCKS phosphorylation: inhibited; also recorded: abolished
[3]; 100 μM Box5, charbacol 5 μM
  Effect on charbacol-induced Ca^2+ signaling: no significant effect
[3]; 100 μM Box5, endothelin-1 10 nM
  Effect on endothelin-1-induced Ca^2+ signaling: no significant effect
[3]; 100 μM Box5 overnight pre-incubation, 0.1 μg/ml Wnt-5a
  Inhibition of Wnt-5a-induced Ca^2+ signal (peak values): more than 70%
HTB63 melanoma cells [4]
  Effect on migration of HTB63 cells: inhibits
A2058 melanoma cells [5]; 100 μM Box5, 0.2 μg/ml Wnt-5a, 24 hours
  Effect on Wnt-5a-induced invasion of A2058 cells: abolished
A2058 melanoma cells [5]; 100 μM Box5, 24 hours
  Effect on basal invasion of A2058 cells: no effect

## TGF-β1: human recombinant TGF-β1 protein from R&D Systems
A2058 melanoma cells [6]
  Concentration giving maximal effect on adhesion of A2058 cells: 5 ng/mL
  Effect on adhesive capacity of A2058 cells: stimulated
A2058 melanoma cells [2]; 5 ng/ml TGF-β1
  Effect on migration of A2058 cells: increased
A2058 melanoma cells [5]; 5 ng/ml TGF-β1, 24 hours
  Effect on migration of A2058 cells in the invasion assay: inhibited
[7]; TGF-β1
  Concentration giving near maximal Wnt-5a expression: 5 ng/mL
[7]; different concentrations of recombinant TGF-β1, 36 h
  Wnt-5a protein expression in A2058 cells: increased expression

## CC(=O)OCOC(=O)CN(CC(=O)OCOC(C)=O)c1ccc(C)cc1OCCOc1cc(C)ccc1N(CC(=O)OCOC(C)=O)CC(=O)OCOC(C)=O [MAPT/AM, reference compound]
[3]; 10 μM MAPT/AM for 30 minutes, rWnt-5a 0.1 μg/ml
  Effect on Wnt-5a-stimulated cytosolic Ca^2+ signal: inhibited
A2058 melanoma cells [5]; 10 μM MAPT/AM 30 minutes pre-incubation, then 1 μM for 24 hours
  Effect on pro-invasive effect of Wnt-5a on A2058 cells: completely abolished

## C[N+](C)(C)CCOC(N)=O [carbachol, reference compound]
[3]
  Cytosolic Ca^2+ response in A2058 cells, control G-protein coupled receptor ligands: prompt responses

## endothelin-1: G-protein coupled control receptor ligand from Sigma Aldrich (CSCSSLMDKECVYFCHLDIIW; disulfide 1-15, 3-11; ends not checked; UniProt P05305 53-73, looked up) [reference compound]
[3]
  Cytosolic Ca^2+ response in A2058 cells, control G-protein coupled receptor ligands: prompt responses

B1: Wnt-3a: human recombinant Wnt-3a protein, canonical Wnt ligand (protein, UniProt P56704 19-352, looked up)
Protein Wnt-3a: SYPIWWSLAVGPQYSSLGSQPILCASIPGLVPKQLRFCRNYVEIMPSVAEGIKIGIQECQHQFRGRRWNCTTVHDSLAIFGPVLDKATRESAFVHAIASAGVAFAVTRSCAEGTAAICGCSSRHQGSPGKGWKWGGCSEDIEFGGMVSREFADARENRPDARSAMNRHNNEAGRQAIASHMHLKCKCHGLSGSCEVKTCWWSQPDFRAIGDFLKDKYDSASEMVVEKHRESRGWVETLRPRYTYFKVPTERDLVYYEASPNFCEPNPETGSFGTRDRTCNVSSHGIDGCDLLCCGRGHNARAERRREKCRCVFHWCCYVSCQECTRVYDVHTCK
A2058 melanoma cells [5]; 0.1 μg/ml Wnt-3a, 24 hours
  Stimulation of invasion of A2058 cells: not seen
